The NIST ThermoML archive (doi:10.1016/j.jct.2015.01.004)
Where “and” joins values, the source holds several entries; their conditions need not be identical. Equal values may be shown once.

Assay: molar heat capacity at constant pressure; xn = mol fraction of the nth substance listed
Conditions: 100 kPa

[Si] [silicon] + [Li]
Conditions | molar heat capacity at constant pressure
453.6 K, Crystal of intercomponent compound 1, Small sample (50 mg) DSC, x2 = 0.81 | 25.67 J/K/mol
460 K, Crystal of intercomponent compound 1, relaxation calorimetry + DSC, x2 = 0.81 | 25.6 J/K/mol
460 K, Crystal of intercomponent compound 2, relaxation calorimetry + DSC, x2 = 0.804 | 26.23 J/K/mol
463.31 K, Crystal of intercomponent compound 2, Small sample (50 mg) DSC, x2 = 0.804 | 26.1 J/K/mol and 26.34 J/K/mol
463.5 K, Crystal of intercomponent compound 1, Small sample (50 mg) DSC, x2 = 0.81 | 25.45 J/K/mol
463.51 K, Crystal of intercomponent compound 1, Small sample (50 mg) DSC, x2 = 0.81 | 25.78 J/K/mol
473.22 K, Crystal of intercomponent compound 2, Small sample (50 mg) DSC, x2 = 0.804 | 26.29 J/K/mol and 26.62 J/K/mol
473.42 K, Crystal of intercomponent compound 1, Small sample (50 mg) DSC, x2 = 0.81 | 25.23 J/K/mol
473.43 K, Crystal of intercomponent compound 1, Small sample (50 mg) DSC, x2 = 0.81 | 26 J/K/mol
480 K, Crystal of intercomponent compound 1, relaxation calorimetry + DSC, x2 = 0.81 | 25.91 J/K/mol
480 K, Crystal of intercomponent compound 2, relaxation calorimetry + DSC, x2 = 0.804 | 26.66 J/K/mol
483.13 K, Crystal of intercomponent compound 2, Small sample (50 mg) DSC, x2 = 0.804 | 26.48 J/K/mol and 26.77 J/K/mol
483.33 K, Crystal of intercomponent compound 1, Small sample (50 mg) DSC, x2 = 0.81 | 25.45 J/K/mol
483.34 K, Crystal of intercomponent compound 1, Small sample (50 mg) DSC, x2 = 0.81 | 26.11 J/K/mol
493.04 K, Crystal of intercomponent compound 2, Small sample (50 mg) DSC, x2 = 0.804 | 26.73 J/K/mol and 26.89 J/K/mol
493.24 K, Crystal of intercomponent compound 1, Small sample (50 mg) DSC, x2 = 0.81 | 25.56 J/K/mol
493.26 K, Crystal of intercomponent compound 1, Small sample (50 mg) DSC, x2 = 0.81 | 26.32 J/K/mol
500 K, Crystal of intercomponent compound 1, relaxation calorimetry + DSC, x2 = 0.81 | 26.22 J/K/mol
500 K, Crystal of intercomponent compound 2, relaxation calorimetry + DSC, x2 = 0.804 | 27.09 J/K/mol
502.95 K, Crystal of intercomponent compound 2, Small sample (50 mg) DSC, x2 = 0.804 | 26.84 J/K/mol and 27.04 J/K/mol
503.15 K, Crystal of intercomponent compound 1, Small sample (50 mg) DSC, x2 = 0.81 | 25.78 J/K/mol
503.17 K, Crystal of intercomponent compound 1, Small sample (50 mg) DSC, x2 = 0.81 | 26.43 J/K/mol
512.86 K, Crystal of intercomponent compound 2, Small sample (50 mg) DSC, x2 = 0.804 | 27 J/K/mol and 27.24 J/K/mol
513.06 K, Crystal of intercomponent compound 1, Small sample (50 mg) DSC, x2 = 0.81 | 25.89 J/K/mol
513.08 K, Crystal of intercomponent compound 1, Small sample (50 mg) DSC, x2 = 0.81 | 26.54 J/K/mol
520 K, Crystal of intercomponent compound 1, relaxation calorimetry + DSC, x2 = 0.81 | 26.54 J/K/mol
520 K, Crystal of intercomponent compound 2, relaxation calorimetry + DSC, x2 = 0.804 | 27.52 J/K/mol
522.77 K, Crystal of intercomponent compound 2, Small sample (50 mg) DSC, x2 = 0.804 | 27.23 J/K/mol and 27.49 J/K/mol
522.97 K, Crystal of intercomponent compound 1, Small sample (50 mg) DSC, x2 = 0.81 | 26.11 J/K/mol
522.99 K, Crystal of intercomponent compound 1, Small sample (50 mg) DSC, x2 = 0.81 | 26.76 J/K/mol
532.68 K, Crystal of intercomponent compound 2, Small sample (50 mg) DSC, x2 = 0.804 | 27.46 J/K/mol and 27.67 J/K/mol
532.88 K, Crystal of intercomponent compound 1, Small sample (50 mg) DSC, x2 = 0.81 | 26.21 J/K/mol
532.9 K, Crystal of intercomponent compound 1, Small sample (50 mg) DSC, x2 = 0.81 | 26.98 J/K/mol
540 K, Crystal of intercomponent compound 1, relaxation calorimetry + DSC, x2 = 0.81 | 26.88 J/K/mol
540 K, Crystal of intercomponent compound 2, relaxation calorimetry + DSC, x2 = 0.804 | 27.95 J/K/mol
542.58 K, Crystal of intercomponent compound 2, Small sample (50 mg) DSC, x2 = 0.804 | 27.67 J/K/mol and 27.88 J/K/mol
542.79 K, Crystal of intercomponent compound 1, Small sample (50 mg) DSC, x2 = 0.81 | 26.54 J/K/mol
542.81 K, Crystal of intercomponent compound 1, Small sample (50 mg) DSC, x2 = 0.81 | 27.31 J/K/mol
552.5 K, Crystal of intercomponent compound 2, Small sample (50 mg) DSC, x2 = 0.804 | 27.8 J/K/mol and 28 J/K/mol
552.7 K, Crystal of intercomponent compound 1, Small sample (50 mg) DSC, x2 = 0.81 | 26.76 J/K/mol
552.72 K, Crystal of intercomponent compound 1, Small sample (50 mg) DSC, x2 = 0.81 | 27.53 J/K/mol
560 K, Crystal of intercomponent compound 1, relaxation calorimetry + DSC, x2 = 0.81 | 27.23 J/K/mol
560 K, Crystal of intercomponent compound 2, relaxation calorimetry + DSC, x2 = 0.804 | 28.38 J/K/mol
562.41 K, Crystal of intercomponent compound 2, Small sample (50 mg) DSC, x2 = 0.804 | 27.97 J/K/mol and 28.24 J/K/mol
562.61 K, Crystal of intercomponent compound 1, Small sample (50 mg) DSC, x2 = 0.81 | 27.09 J/K/mol
562.63 K, Crystal of intercomponent compound 1, Small sample (50 mg) DSC, x2 = 0.81 | 27.75 J/K/mol
572.33 K, Crystal of intercomponent compound 2, Small sample (50 mg) DSC, x2 = 0.804 | 28.21 J/K/mol and 28.37 J/K/mol
572.52 K, Crystal of intercomponent compound 1, Small sample (50 mg) DSC, x2 = 0.81 | 27.31 J/K/mol
572.54 K, Crystal of intercomponent compound 1, Small sample (50 mg) DSC, x2 = 0.81 | 27.97 J/K/mol
580 K, Crystal of intercomponent compound 1, relaxation calorimetry + DSC, x2 = 0.81 | 27.6 J/K/mol
580 K, Crystal of intercomponent compound 2, relaxation calorimetry + DSC, x2 = 0.804 | 28.81 J/K/mol
582.24 K, Crystal of intercomponent compound 2, Small sample (50 mg) DSC, x2 = 0.804 | 28.41 J/K/mol and 28.65 J/K/mol
582.43 K, Crystal of intercomponent compound 1, Small sample (50 mg) DSC, x2 = 0.81 | 27.53 J/K/mol
582.45 K, Crystal of intercomponent compound 1, Small sample (50 mg) DSC, x2 = 0.81 | 28.19 J/K/mol
592.15 K, Crystal of intercomponent compound 2, Small sample (50 mg) DSC, x2 = 0.804 | 28.65 J/K/mol and 28.85 J/K/mol
592.34 K, Crystal of intercomponent compound 1, Small sample (50 mg) DSC, x2 = 0.81 | 27.86 J/K/mol
592.36 K, Crystal of intercomponent compound 1, Small sample (50 mg) DSC, x2 = 0.81 | 28.41 J/K/mol
600 K, Crystal of intercomponent compound 1, relaxation calorimetry + DSC, x2 = 0.81 | 28 J/K/mol
600 K, Crystal of intercomponent compound 2, relaxation calorimetry + DSC, x2 = 0.804 | 29.25 J/K/mol
602.06 K, Crystal of intercomponent compound 2, Small sample (50 mg) DSC, x2 = 0.804 | 28.86 J/K/mol and 29.05 J/K/mol
602.26 K, Crystal of intercomponent compound 1, Small sample (50 mg) DSC, x2 = 0.81 | 28.19 J/K/mol
602.27 K, Crystal of intercomponent compound 1, Small sample (50 mg) DSC, x2 = 0.81 | 28.63 J/K/mol
611.97 K, Crystal of intercomponent compound 2, Small sample (50 mg) DSC, x2 = 0.804 | 29.02 J/K/mol and 29.19 J/K/mol
612.17 K, Crystal of intercomponent compound 1, Small sample (50 mg) DSC, x2 = 0.81 | 28.3 J/K/mol
612.18 K, Crystal of intercomponent compound 1, Small sample (50 mg) DSC, x2 = 0.81 | 28.74 J/K/mol
620 K, Crystal of intercomponent compound 1, relaxation calorimetry + DSC, x2 = 0.81 | 28.43 J/K/mol
620 K, Crystal of intercomponent compound 2, relaxation calorimetry + DSC, x2 = 0.804 | 29.68 J/K/mol
621.88 K, Crystal of intercomponent compound 2, Small sample (50 mg) DSC, x2 = 0.804 | 29.19 J/K/mol and 29.48 J/K/mol
622.08 K, Crystal of intercomponent compound 1, Small sample (50 mg) DSC, x2 = 0.81 | 28.41 J/K/mol
622.09 K, Crystal of intercomponent compound 1, Small sample (50 mg) DSC, x2 = 0.81 | 28.96 J/K/mol
631.8 K, Crystal of intercomponent compound 2, Small sample (50 mg) DSC, x2 = 0.804 | 29.46 J/K/mol and 29.65 J/K/mol
631.99 K, Crystal of intercomponent compound 1, Small sample (50 mg) DSC, x2 = 0.81 | 28.74 J/K/mol
632.01 K, Crystal of intercomponent compound 1, Small sample (50 mg) DSC, x2 = 0.81 | 29.07 J/K/mol
640 K, Crystal of intercomponent compound 1, relaxation calorimetry + DSC, x2 = 0.81 | 28.9 J/K/mol
640 K, Crystal of intercomponent compound 2, relaxation calorimetry + DSC, x2 = 0.804 | 30.11 J/K/mol
641.71 K, Crystal of intercomponent compound 2, Small sample (50 mg) DSC, x2 = 0.804 | 29.67 J/K/mol and 29.92 J/K/mol
641.89 K, Crystal of intercomponent compound 1, Small sample (50 mg) DSC, x2 = 0.81 | 28.96 J/K/mol
641.92 K, Crystal of intercomponent compound 1, Small sample (50 mg) DSC, x2 = 0.81 | 29.29 J/K/mol
651.63 K, Crystal of intercomponent compound 2, Small sample (50 mg) DSC, x2 = 0.804 | 29.86 J/K/mol and 30.21 J/K/mol
651.81 K, Crystal of intercomponent compound 1, Small sample (50 mg) DSC, x2 = 0.81 | 29.07 J/K/mol
651.84 K, Crystal of intercomponent compound 1, Small sample (50 mg) DSC, x2 = 0.81 | 29.51 J/K/mol
